Assay results reported in patent US20240158756A1, “FEEDER-BASED AND FEEDER-FREE STEM CELL CULTURE SYSTEMS FOR STRATIFIED EPITHELIAL STEM CELLS, AND USES RELATED THERETO” (University of Houston System, priority 2019, published 2024).

Key:
ALK5 (TGF-β RI) = target: T1, ALK5 (TGF-β RI) (Homo sapiens, UniProt P36897); conditions: high concentrations, approximate; cited from earlier work
T1 sequence (P36897 34-503): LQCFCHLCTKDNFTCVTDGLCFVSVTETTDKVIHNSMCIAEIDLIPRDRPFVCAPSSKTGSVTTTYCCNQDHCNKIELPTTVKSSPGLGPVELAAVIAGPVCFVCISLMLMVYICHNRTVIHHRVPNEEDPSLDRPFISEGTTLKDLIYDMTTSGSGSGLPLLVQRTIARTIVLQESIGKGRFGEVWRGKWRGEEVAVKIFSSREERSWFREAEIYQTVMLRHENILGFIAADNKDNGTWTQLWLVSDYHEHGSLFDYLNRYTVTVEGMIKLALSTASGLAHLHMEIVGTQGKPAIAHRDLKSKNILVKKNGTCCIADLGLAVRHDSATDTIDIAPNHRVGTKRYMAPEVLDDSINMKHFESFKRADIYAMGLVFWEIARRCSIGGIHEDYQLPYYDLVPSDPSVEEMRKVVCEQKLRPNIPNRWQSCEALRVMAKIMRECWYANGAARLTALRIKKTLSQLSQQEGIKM

[1] = test system: epithelial stem cells derived from human tissues or other mammals; test: Epithelial stem cell culture on irradiated 3T3-J2 feeder; conditions: feeder-based medium
From the text: (§1) An illustrative system is a medium referred to as SQM. The SQM medium has been tested and proven to support robust growth of epithelial stem cells derived from human tissues or other mammals in the presence of the irradiate feeder of mouse fibroblast cells (3T3-J2). For example, lung stem cells, esophagus stem cell, bladder stem cells and ovarian cancer stem cells, can all grow robustly in this culture system that comprises SQM medium, along with irradiated 3T3-J2 feeders in the illustrated example.
(§2) The base medium comprises DMEM, F12, FBS, L-glutamine, Adenine, Pen/Strep, Insulin, T3, Hydrocortisone, EGF and is further added a Rock inhibitor, TGF-beta inhibitor, BMP4 inhibitor, VEGF inhibitor, TrkA inhibitor, Ponatinib and FGF10. […] R-spondin was found not required to support the self-renewal and multipotency of stratified epithelial stem cells.

[2] = test system: epithelial stem cells derived from human tissues or other mammals; test: Feeder-free epithelial stem cell culture; format: cell-based
From the text: as §1, with “Another” for “An”, “SGM-63+.” for “SQM.”, “SGM-63+” for “SQM”, “absence” for “presence”, “SGM-63+ medium without the need of” for “SQM medium, along with”
as §2, with “Ponatinib, CK2 inhibitor, Syk inhibitor, LPA Receptor antagonist, Oct 4-activating compound 1, GSK3 inhibitor” for “Ponatinib”

Compound	concentration at which ALK5 may be inhibited (ALK5 (TGF-β RI))	effect of inclusion in the medium on epithelial stem cell self-renewal [1]	effect of inclusion in the medium on epithelial stem cell self-renewal [2]
4-[5-(4-Fluorophenyl)-2-[4-(methylsulfonyl)phenyl]-1H-imidazol-4-yl]pyridine [SB-203580]	≥ 10 µM	–	–
NC(=O)c1cccnc1 [nicotinamide]	–	induce the abortion of some epithelial stem cell (lung, esophagus etc) self-renewal	induce the abortion of some epithelial stem cell (lung, esophagus etc) self-renewal
jagged1: Notch agonist, surface-bound or secreted Notch ligand	–	induce the abortion of some epithelial stem cell (lung, esophagus etc) self-renewal	induce the abortion of some epithelial stem cell (lung, esophagus etc) self-renewal
